This note sets out measurements from patent publication US7235534B2, “Antisense strategy to modulate estrogen receptor response (ER α and/or ER β )” (Institut de Cardiologie de Montreal, priority 2001, dated 2007).

For assay [1], the system named is p38 MAPK. The assay can be described thus: Western blot of p38 MAPK phosphorylation in PAEC. Format: cell-based, porcine. The note with it: for inhibition of p38 MAPK phosphorylation induced by a 30 minutes treatment with 17βE: antagonist 10^−7M 5 min prior to 17βE 10^−8M. How it is done:
(§1) Confluent PAEC and PSMC were starved for 7 hours in DMEM and antibiotics. Culture medium was removed, and cells were rinsed twice with ice-cold DMEM. PSMC were incubated on ice in DMEM with or without 17βE (10^−8M) for 30 min, incubated at 37° C. for 5, 10, 15 and 30 min, then brought back on ice. Cell were then rinsed with cold DMEM, incubated on ice in DMEM, bovine serum albumin (1 mg/ml), PDGF-BB (10 ng/ml) for 30 min, incubated at 37° C. for 5 min, and then brought back on ice. PAEC were incubated on ice in DMEM with or without 17βE (10^−7M) for 30 min, then incubated at 37° C. for 5, 10, 15 and 30 min and brought back on ice. […] Total proteins were prepared by the addition of 500 μl of lysis buffer containing phenylmethylsulfonyl fluoride 1 mM, leupeptin 10 μg/ml, aprotinin 30 μg/ml, and NaVO3 1 mM (Sigma). Plates were incubated at 4° C. for 30 min and scraped, and the protein concentration was determined with a Bio-Rad protein kit (Bio-Rad, Hercules, Calif.). Same protein quantity for each cell type and condition were dissolved in Laemmli's buffer, boiled for 5 min in reducing conditions, separated by a 10% gradient SDS-PAGE (Protean II kit; Bio-Rad), and transblotted onto a 0.45-μm polyvinylidene difluoride membranes (Millipore Corp., Bedford, Mass.). The membranes were blocked in 5% Blotto-TTBS (5% nonfat dry milk; Bio-Rad), 0.05% Tween 20, 0.15 M NaCl, 25 mM Tris-HCl, pH 7.5) for 1 h at room temperature with gentle agitation and incubated overnight at 4° C. in 0.5% Blotto-TTBS with the addition of an anti-phospho p42/44 MAPK or an anti-phospho p38 MAPK rabbit polyclonal antiserums (α-pp42/44; dilution of 1:10 000, and α-pp38; dilution 1:5000, New England BioLabs, Beverly, Mass.). Membranes were washed with TTBS, and incubated at room temperature with an anti-rabbit IgG antibody coupled to horseradish peroxidase (dilution 1:10 000–1:20 000, Santa Cruz Biotechnology, Santa Cruz, Calif.) in 0.5% Blotto-TTBS for 30 min. […] Kaleidoscope molecular weight and SDS-plyacrylamide gel electrophoresis broad range marker proteins (Bio-Rad) were used as standards for SDS-plyacrylamide gel electrophoresis. Digital image densitometry (PDI Bioscience, Aurora, ON) was performed on x-ray film to determine relative percentages of p42/44 and p38 MAPK phosphorylation.
(§2) Confluent PAEC and PSMC were preteated with or without antisense sequences as described above for Western Blot analysis. Cells were rinsed twice with ice-cold DMEM. PSMC and PAEC were stimulated with or without 17βE (10^−8 mol/L) as previously described (Geraldes P). Briefly, PSMC were incubated on ice in DMEM with or without 17βE (10^−8 mol/L) for 30 minutes, incubated at 37° C. for 30 minutes, then brought back on ice. Cells were then rinsed with cold DMEM, incubated on ice in DMEM, bovine serum albumin (1 mg/mL), PDGF-BB (10 ng/mL) for 30 minutes, incubated at 37° C. for 5 and 30 minutes, and then brought back on ice. PAEC were incubated on ice in DMEM with or without 17βE (10^−8 mol/L) for 30 minutes, then incubated at 37° C. for 5 and 30 minutes and brought back on ice. Total proteins were prepared-by the addition of 500 μL of lysis buffer, incubated at 4° C. for 30 minutes and scraped to collect the proteins. Same quantity of protein was separated by a 10% gradient SDS-PAGE (Protean II kit; Bio-Rad), and transblotted onto a 0.45-μm polyvinylidene difluoride membranes (Millipore Corp.). […]

Assay [2] has as its system p38 MAPK. The assay can be described thus: Western blot of p38 MAPK phosphorylation in PSMC. In kind it is cell-based, porcine. The conditions noted are these: for reversal of the effect of 17βE on p38 MAPK induced by PDGF-BB: antagonist 10^−7M. As to the method: as §1
as §2, with “Corp.). The membranes were blocked for 1 hour at room temperature with gentle agitation and incubated overnight at 4° C. in 0.5% Blotto-TTBS with the addition of an antiphospho p42/44 MAPK or an antiphospho p38 MAPK rabbit polyclonal antiserums (α-pp42/44; dilution of 1:10000, and α-pp38; dilution 1:5 000, New England BioLabs, Beverly, Mass.). Membranes were washed with TTBS, and incubated at room temperature with an anti-rabbit IgG antibody coupled to horseradish peroxidase (dilution 1:10 000–1:20 000, Santa Cruz Biotechnology) in 0.5% Blotto-TTBS for 30 minutes.” for “Corp.).”
In general terms: A western blot detects proteins with antibodies after separation by electrophoresis.

Consider `CC/C(=C(\c1ccc(O)cc1)c1ccc(OCCN(C)C)cc1)c1ccccc1` [4-OHT, 4-OH-Tamoxifen], for which the “inhibition of p38 MAPK phosphorylation induced by a 30 minutes treatment with 17βE” value (“inhibition … with 17βE” for short) in the assay with p38 MAPK [1] is reported as 81%. Besides, the “reversal of the effect of 17βE on p38 MAPK induced by PDGF-BB” value (shortened to “reversal of the effect of 17βE”) in the assay with p38 MAPK [2] (PDGF-BB 30 min) came to 53%.

With `C[C@]12CC[C@@H]3c4ccc(O)cc4CC[C@H]3[C@@H]1CC[C@@H]2O` [17βE, 17-beta-estradiol], the “time of maximum stimulation of p38 MAPK phosphorylation” value in the assay with p38 MAPK [1] (17βE 10^−8M) stood at 30 min. The “increase of p38 MAPK phosphorylation” value with p38 MAPK [1] (17βE 10^−8 mol/L, 30 minutes, Example 2) is 254%. For the same compound, the “reversal of PDGF-BB-increased p38 MAPK phosphorylation” value in the assay on p38 MAPK [2] (17βE 10^−8 mol/L 30 minutes, Example 2) is recorded as “reversed”. Further, the “inhibition of PDGF-BB-mediated p38 MAPK phosphorylation” value in the assay with p38 MAPK [2] (17βE (10^−8M) pretreatment 30 minutes, PDGF-BB 30 min) turned out to be 85%. The “reduction of PDGF-BB induced phosphorylation of p38 MAPK” value with p38 MAPK [2] (17βE for 30 min) is 85%. In addition, in the assay on p38 MAPK [2] (substance alone, data not shown), the “change in basal phosphorylation of p38 MAPK” value was “did not observe any change”.

In the case of `O=C(c1ccc(OCN2CCCCC2)cc1)c1c(-c2ccc(O)cc2)sc2cc(O)ccc12` [Ral, Raloxifen], the “inhibition … with 17βE” value in the assay with p38 MAPK [1] was determined as 98%. In the assay with p38 MAPK [2] (PDGF-BB 30 min), the “reversal of the effect of 17βE” value came out at 32%.

With `CC/C(=C(\c1ccccc1)c1ccc(OCCN(C)C)cc1)c1ccccc1` [Tam, Tamoxifen], the “inhibition … with 17βE” value in the assay on p38 MAPK [1] is listed as 84%. In the assay on p38 MAPK [2] (PDGF-BB 30 min), the “reversal of the effect of 17βE” value is listed as 51%.
